Marks after values point to notes of the source that are not given here.
What was measured:
[1] = test system: human Burkitt lymphoma Raji cell; experiment: Cytotoxic action on Raji cells (WST-8, 96 hr); type: cell-based
Description: (§1) The cytotoxic action of the compound of the present invention against human cancer cells was evaluated in vitro. In this experiment, (+)-JQ1 (Nature volume 468, pages 1067-1073 (23 Dec. 2010)) known to have an inhibitory activity on the binding of BRD4 protein and a ligand therefor was used as a positive control drug. Respective cells were suspended in 10% FBS/RPMI1640, seeded in a 96 well plate and cultured at 5% CO2, 37° C. overnight. A test compound dissolved in DMSO was diluted with 10% FBS/RPMI1640 and added and the cells were further cultured for 96 hr. After culturing, the viable cell number was measured using a cell number measurement WST-8 kit (Kishida Chemical Co., Ltd.). As a control, the measurement was performed under conditions free of the test compound. The cytotoxic activity of the compound of the present invention against human prostate cancer LNCaP cells is shown in IC50 value in Table 1. The IC50 value is a concentration of the compound showing 50% cell survival rate when the cell survival rate thereof under compound untreated condition is 100%. It was calculated from the straight line connecting the cell survival rate at two points enclosing the 50% cell survival rate and the compound concentration. […]

[2] = test system: human acute myeloid leukemia MV-4-11 cell transplanted mouse; experiment: Antitumor effect in MV-4-11 cell transplanted mouse (tail vein, days 1, 5, 9, 13); type: in vivo; settings: tumor weight on day 15
Description: The in vivo antitumor effect of the compound of the present invention was studied using human acute myeloid leukemia MV-4-11 cell transplanted mouse. MV-4-11 cells were subcutaneously transplanted into the inguinal region of male, 6-week-old BALB/c nude mouse (5×10^6 cells/mouse). The compound of the present invention was administered into the tail vein on days 1, 5, 9, 13 from the time point when the assumed tumor volume determined from ½ab^2 (a is major axis and b is minor axis of tumor) reached about 100 mm^3 (day 1). The control group was administered with a solvent, 20% hydroxypropyl-β-cyclodextrin solution. On day 15, the tumor was isolated, the weight was measured, and the tumor growth inhibitory rate IR (%) was calculated by the following formula. tumor growth inhibitory rate IR (%)={1−(average tumor weight of administration group/average tumor weight of nonadministration control group)}×100(%)

[3] = test system: human colon cancer HCT116 cell; experiment: Cytotoxic action on HCT116 cells (WST-8, 96 hr); type: cell-based; settings: HCT-116, HCT116, 96 hr
Description: as §1

COC(=O)C[C@@H]1N=C(c2ccc(-c3ccc(C(=O)NCc4ccc(S(=O)(=O)Nc5ccc(C)c6c(C#N)c[nH]c56)cc4)cc3)cc2)c2c(sc(C)c2C)-n2c(C)nnc21 [Example 1, methyl [(6S)-4-{4′-[({4-[(3-cyano-4-methyl-1H-indol-7-yl)sulfamoyl]phenyl}methyl)carbamoyl][1,1′-biphenyl]-4-yl}-2,3,9-trimethyl-6H-thieno[3,2-f][1,2,4]triazolo[4,3-a][1,4]diazepin-6-yl]acetate]
IC50 [1]: 5.3 nM | tumor growth inhibitory rate ([2]; 1 mg/kg/day): 68.4* % | tumor growth inhibitory rate ([2]; 3 mg/kg/day): 95.3* % | IC50 [3]: 8.8 nM
